Key:
[1] = molecular target: T1, Adenosine receptor A1 (Homo sapiens, UniProt P30542)
T1 sequence (P30542 whole entry): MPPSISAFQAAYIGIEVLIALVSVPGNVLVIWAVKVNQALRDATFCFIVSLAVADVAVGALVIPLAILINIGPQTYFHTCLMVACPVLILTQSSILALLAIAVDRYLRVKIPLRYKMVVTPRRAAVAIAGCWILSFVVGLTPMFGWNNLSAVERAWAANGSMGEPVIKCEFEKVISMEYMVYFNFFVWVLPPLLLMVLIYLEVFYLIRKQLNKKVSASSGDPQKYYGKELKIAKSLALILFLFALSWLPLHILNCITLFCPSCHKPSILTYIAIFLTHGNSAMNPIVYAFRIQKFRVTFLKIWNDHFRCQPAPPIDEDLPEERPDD

[2] = molecular target: Vasopressin V2 receptor (Homo sapiens, UniProt P30518)
[3] = molecular target: Glutamate receptor ionotropic, NMDA 1 (Rattus norvegicus, UniProt P35439)
[4] = molecular target: T2, 5-hydroxytryptamine receptor 2C (Homo sapiens, UniProt P28335)
T2 sequence (P28335 whole entry): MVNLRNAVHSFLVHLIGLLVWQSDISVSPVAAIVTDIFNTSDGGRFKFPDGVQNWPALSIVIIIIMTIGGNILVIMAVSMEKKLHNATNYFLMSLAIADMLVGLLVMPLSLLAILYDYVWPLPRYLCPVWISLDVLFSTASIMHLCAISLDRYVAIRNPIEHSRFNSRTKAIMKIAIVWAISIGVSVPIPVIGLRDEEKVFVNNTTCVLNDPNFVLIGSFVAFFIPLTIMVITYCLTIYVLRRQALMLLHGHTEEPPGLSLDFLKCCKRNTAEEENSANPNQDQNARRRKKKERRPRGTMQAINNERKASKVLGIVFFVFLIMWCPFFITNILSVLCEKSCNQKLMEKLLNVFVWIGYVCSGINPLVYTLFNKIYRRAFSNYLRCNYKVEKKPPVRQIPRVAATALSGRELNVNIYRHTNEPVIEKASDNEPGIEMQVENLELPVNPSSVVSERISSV

[5] = molecular target: Melanocortin receptor 3 (Homo sapiens, UniProt P41968)
[6] = molecular target: Delta-type opioid receptor (Homo sapiens, UniProt P41143)
[7] = molecular target: T3, Prostaglandin G/H synthase 1 (Rattus norvegicus, UniProt Q63921); assay type: functional
T3 sequence (Q63921 whole entry): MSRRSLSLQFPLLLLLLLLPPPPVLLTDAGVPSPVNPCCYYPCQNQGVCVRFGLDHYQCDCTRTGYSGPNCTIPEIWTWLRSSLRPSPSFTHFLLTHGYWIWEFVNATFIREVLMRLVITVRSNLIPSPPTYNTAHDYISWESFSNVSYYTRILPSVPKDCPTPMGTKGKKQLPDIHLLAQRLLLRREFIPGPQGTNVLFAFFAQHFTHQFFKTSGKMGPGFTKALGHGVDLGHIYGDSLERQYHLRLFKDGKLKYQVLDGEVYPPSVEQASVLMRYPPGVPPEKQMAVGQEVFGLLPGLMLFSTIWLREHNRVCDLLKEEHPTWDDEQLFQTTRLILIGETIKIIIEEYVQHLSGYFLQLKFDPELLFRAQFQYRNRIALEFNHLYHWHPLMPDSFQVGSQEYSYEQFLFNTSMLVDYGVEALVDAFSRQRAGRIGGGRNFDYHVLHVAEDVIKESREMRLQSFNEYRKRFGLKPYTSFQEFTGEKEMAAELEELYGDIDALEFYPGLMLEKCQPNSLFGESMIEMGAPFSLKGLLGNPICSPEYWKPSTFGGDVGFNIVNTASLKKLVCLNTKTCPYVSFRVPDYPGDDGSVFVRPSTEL

[8] = molecular target: T4, Equilibrative nucleoside transporter 1 (Homo sapiens, UniProt Q99808)
T4 sequence (Q99808 whole entry): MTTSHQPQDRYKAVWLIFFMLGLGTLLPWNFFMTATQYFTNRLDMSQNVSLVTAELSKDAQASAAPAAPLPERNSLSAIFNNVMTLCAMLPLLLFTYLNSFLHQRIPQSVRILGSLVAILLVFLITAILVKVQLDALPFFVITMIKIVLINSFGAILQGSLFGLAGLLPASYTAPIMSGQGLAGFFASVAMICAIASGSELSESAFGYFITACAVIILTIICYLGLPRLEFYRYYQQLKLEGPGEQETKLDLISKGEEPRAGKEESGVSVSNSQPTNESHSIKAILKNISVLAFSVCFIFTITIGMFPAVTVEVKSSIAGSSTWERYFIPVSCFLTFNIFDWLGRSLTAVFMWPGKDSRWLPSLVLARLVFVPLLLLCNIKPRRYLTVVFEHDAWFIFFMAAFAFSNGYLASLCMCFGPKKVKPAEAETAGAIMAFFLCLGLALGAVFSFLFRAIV

[9] = molecular target: Sodium-dependent dopamine transporter (Homo sapiens, UniProt Q01959)
[10] = molecular target: T5, Amine oxidase [flavin-containing] A (Homo sapiens, UniProt P21397); assay type: functional
T5 sequence (P21397 whole entry): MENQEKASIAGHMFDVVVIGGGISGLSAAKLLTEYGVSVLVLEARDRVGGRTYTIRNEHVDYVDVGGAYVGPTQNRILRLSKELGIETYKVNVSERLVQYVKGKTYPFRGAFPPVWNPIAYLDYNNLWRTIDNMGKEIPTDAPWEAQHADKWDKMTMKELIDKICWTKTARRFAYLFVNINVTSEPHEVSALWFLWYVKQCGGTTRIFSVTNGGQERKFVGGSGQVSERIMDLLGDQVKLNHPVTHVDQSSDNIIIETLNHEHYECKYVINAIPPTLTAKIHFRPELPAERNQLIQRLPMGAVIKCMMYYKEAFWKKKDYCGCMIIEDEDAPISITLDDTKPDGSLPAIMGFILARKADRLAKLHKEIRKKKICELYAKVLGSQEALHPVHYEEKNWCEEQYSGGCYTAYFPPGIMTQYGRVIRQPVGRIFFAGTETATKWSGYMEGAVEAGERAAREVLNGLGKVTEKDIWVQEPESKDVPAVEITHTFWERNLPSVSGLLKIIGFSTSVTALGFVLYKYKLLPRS

[11] = molecular target: cGMP-inhibited 3',5'-cyclic phosphodiesterase 3A (Homo sapiens, UniProt Q14432); assay type: functional
Note: assay procedure not described here.

Chain of Delta-type opioid receptor (P41143 whole entry): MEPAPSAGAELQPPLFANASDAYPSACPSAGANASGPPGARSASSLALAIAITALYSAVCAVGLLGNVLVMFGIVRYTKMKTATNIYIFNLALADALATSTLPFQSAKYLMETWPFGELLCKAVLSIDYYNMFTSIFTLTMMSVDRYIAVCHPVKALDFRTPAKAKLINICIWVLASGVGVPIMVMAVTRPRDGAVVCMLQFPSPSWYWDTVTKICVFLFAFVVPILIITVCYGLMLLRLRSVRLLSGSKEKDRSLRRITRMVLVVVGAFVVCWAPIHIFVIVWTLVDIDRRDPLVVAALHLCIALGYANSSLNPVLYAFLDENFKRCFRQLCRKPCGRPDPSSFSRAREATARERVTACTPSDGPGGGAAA
Chain of Sodium-dependent dopamine transporter (Q01959 whole entry): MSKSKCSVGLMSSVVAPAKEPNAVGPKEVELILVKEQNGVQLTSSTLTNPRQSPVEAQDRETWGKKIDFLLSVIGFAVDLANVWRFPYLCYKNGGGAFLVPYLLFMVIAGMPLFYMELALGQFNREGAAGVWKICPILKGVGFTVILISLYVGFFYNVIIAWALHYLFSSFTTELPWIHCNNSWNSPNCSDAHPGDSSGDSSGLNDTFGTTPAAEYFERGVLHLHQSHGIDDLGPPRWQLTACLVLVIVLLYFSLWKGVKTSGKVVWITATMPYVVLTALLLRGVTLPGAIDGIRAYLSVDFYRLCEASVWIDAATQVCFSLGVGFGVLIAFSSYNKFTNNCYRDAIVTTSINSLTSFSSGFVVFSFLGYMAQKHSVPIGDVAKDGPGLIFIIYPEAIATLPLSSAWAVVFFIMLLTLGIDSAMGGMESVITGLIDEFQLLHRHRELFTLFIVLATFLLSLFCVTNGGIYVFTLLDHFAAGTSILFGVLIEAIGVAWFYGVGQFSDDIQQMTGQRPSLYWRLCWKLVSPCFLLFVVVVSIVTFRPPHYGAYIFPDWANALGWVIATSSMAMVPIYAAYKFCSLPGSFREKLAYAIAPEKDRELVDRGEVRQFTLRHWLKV
Chain of Melanocortin receptor 3 (P41968 whole entry): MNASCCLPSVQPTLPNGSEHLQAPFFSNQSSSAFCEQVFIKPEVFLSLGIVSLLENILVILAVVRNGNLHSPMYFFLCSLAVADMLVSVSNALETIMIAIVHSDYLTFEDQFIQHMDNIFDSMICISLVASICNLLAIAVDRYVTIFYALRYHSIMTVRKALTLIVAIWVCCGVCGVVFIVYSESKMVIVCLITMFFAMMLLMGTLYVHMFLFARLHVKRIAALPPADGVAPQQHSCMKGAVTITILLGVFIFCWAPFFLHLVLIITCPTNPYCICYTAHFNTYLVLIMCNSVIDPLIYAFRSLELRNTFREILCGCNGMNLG
Chain of Vasopressin V2 receptor (P30518 whole entry): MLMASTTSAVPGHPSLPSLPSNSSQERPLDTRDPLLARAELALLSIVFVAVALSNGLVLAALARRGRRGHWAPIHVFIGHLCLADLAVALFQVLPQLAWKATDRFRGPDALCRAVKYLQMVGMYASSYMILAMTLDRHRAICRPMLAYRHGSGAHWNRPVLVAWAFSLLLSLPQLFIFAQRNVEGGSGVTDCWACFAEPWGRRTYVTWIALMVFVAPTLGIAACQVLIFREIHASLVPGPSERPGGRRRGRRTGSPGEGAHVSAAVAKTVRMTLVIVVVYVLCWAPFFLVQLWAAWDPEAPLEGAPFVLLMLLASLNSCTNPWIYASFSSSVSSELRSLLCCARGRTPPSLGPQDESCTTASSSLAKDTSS
Chain of cGMP-inhibited 3',5'-cyclic phosphodiesterase 3A (Q14432 whole entry): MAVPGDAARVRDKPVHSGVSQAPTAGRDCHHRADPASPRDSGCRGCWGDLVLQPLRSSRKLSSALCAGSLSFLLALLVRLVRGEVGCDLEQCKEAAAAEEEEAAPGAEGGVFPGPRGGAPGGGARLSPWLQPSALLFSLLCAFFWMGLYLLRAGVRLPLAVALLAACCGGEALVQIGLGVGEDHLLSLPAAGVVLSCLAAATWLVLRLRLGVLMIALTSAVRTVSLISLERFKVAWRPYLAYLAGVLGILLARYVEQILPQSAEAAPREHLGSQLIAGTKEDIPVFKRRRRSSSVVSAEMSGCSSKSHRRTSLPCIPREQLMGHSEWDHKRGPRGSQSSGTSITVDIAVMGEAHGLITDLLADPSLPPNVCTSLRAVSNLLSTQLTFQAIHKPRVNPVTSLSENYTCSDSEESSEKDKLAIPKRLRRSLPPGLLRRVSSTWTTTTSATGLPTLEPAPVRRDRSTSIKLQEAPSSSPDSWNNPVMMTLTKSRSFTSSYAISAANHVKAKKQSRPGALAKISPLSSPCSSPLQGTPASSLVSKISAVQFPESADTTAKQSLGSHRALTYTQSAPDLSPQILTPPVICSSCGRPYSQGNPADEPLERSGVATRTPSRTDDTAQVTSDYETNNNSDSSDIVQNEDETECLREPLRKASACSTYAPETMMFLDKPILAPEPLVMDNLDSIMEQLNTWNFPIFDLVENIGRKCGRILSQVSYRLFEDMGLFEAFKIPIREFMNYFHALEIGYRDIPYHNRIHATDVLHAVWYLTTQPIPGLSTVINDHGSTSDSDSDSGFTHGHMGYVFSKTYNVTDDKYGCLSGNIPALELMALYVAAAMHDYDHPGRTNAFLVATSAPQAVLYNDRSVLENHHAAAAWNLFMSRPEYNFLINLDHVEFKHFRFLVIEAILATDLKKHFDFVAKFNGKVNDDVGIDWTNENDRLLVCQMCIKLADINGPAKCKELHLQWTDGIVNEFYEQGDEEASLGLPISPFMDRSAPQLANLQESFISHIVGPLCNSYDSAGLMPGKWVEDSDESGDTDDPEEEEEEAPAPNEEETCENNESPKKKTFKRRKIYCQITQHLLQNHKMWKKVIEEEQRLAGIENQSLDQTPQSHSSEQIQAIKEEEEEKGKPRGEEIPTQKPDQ

SMILES | AC50 [1] [µM] | AC50 [2] [µM] | AC50 [3] [µM] | AC50 [4] [µM] | AC50 [5] [µM] | AC50 [6] [µM] | AC50 [7] [µM] | AC50 [8] [µM] | AC50 [9] [µM] | AC50 [10] [µM] | AC50 [11] [µM]
CCC[C@H](NC(=O)[C@@H]1[C@H]2CCC[C@H]2CN1C(=O)[C@@H](NC(=O)[C@@H](NC(=O)c1cnccn1)C1CCCCC1)C(C)(C)C)C(=O)C(=O)NC1CC1 | > 30 | > 30 | > 10 | > 30 | > 30 | > 30 | > 30 | > 30 | > 10 | > 10 | > 30
CC1OC2(CS1)CN1CCC2CC1 (stereo unspecified) [CEVIMELINE] | > 10 | > 10 | > 10 | > 30 | > 10 | > 30 | > 10 | > 10 | > 10 | > 30 | > 30
C#C[C@]1(OC(C)=O)CC[C@H]2[C@@H]3CCC4=C/C(=N/O)CC[C@@H]4[C@H]3CC[C@@]21CC [NORGESTIMATE] | > 30 | > 30 | > 30 | > 30 | > 30 | > 30 | 7.8 | > 30 | 10 | > 30 | > 30
CC(C(=O)O)c1ccc(-c2ccccc2)c(F)c1 (stereo unspecified) [FLURBIPROFEN] | > 10 | > 10 | > 10 | 2.6 | > 10 | > 30 | 11 | > 10 | > 10 | > 10 | > 30
CCOC(=O)c1cncn1[C@H](C)c1ccccc1 [ETOMIDATE] | > 10 | > 10 | > 10 | > 30 | > 10 | > 30 | > 10 | > 10 | > 10 | > 10 | > 30
Cc1cc2cc3c(C)cc(=O)oc3c(C)c2o1 [TRIOXSALEN] | > 30 | > 10 | > 10 | > 30 | > 10 | > 30 | > 10 | > 10 | > 10 | 0.72 | > 30
Oc1ccc2c(c1)CC[C@H](c1ccccc1)[C@@H]2c1ccc(OCCN2CCCC2)cc1 [LASOFOXIFENE] | > 30 | 15 | > 30 | 5.3 | 11 | 7.2 | 5 | > 30 | 0.117 | > 30 | > 30
Clc1ccc(C(Cn2ccnc2)OCc2ccsc2Cl)c(Cl)c1 (stereo unspecified) [TIOCONAZOLE] | > 30 | > 30 | > 30 | > 30 | > 30 | 3.2 | 12.4 | > 30 | 10.6 | > 30 | 17
Clc1ccc2c(N3CCN(CCCN4CCN(c5ccnc6cc(Cl)ccc56)CC4)CC3)ccnc2c1 [PIPERAQUINE] | > 30 | > 30 | > 30 | > 30 | > 30 | > 30 | > 30 | > 30 | > 30 | > 30 | 4.7
CCCC(CCC)C(N)=O [VALPROMIDE] | > 30 | > 30 | > 10 | > 30 | > 30 | > 30 | > 30 | > 30 | > 30 | > 10 | > 30
CC(C(=O)O)c1ccc(CC2CCCC2=O)cc1 (stereo unspecified) [LOXOPROFEN] | > 30 | > 30 | > 30 | > 30 | > 30 | > 30 | > 30 | > 30 | > 30 | > 30 | > 30
CN1CCN(C2=Nc3ccccc3Oc3ccc(Cl)cc32)CC1 [LOXAPINE] | > 30 | > 30 | > 10 | 0.029 | > 30 | 8.51 | > 30 | > 30 | > 10 | > 10 | > 30
COc1cc(N)c(Cl)cc1C(=O)NC1CCN(Cc2ccccc2)CC1 [CLEBOPRIDE] | > 30 | > 30 | > 30 | 13 | > 30 | > 30 | 14 | > 30 | 22 | > 30 | 7.7
CCCCC(=O)O[C@]1(C(=O)CO)[C@@H](C)C[C@H]2[C@@H]3CCC4=CC(=O)C=C[C@]4(C)[C@@]3(F)[C@@H](O)C[C@@]21C [BETAMETHASONE VALERATE] | > 30 | > 30 | > 10 | > 30 | > 30 | > 30 | > 30 | > 30 | > 30 | > 10 | > 30
C[C@]12CC[C@@H]3c4ccc(O)cc4C[C@@H](CCCCCCCCC[S+]([O-])CCCC(F)(F)C(F)(F)F)[C@H]3[C@@H]1CC[C@@H]2O (stereo partly specified) [FULVESTRANT] | > 30 | > 30 | > 30 | > 30 | > 30 | > 30 | > 30 | > 30 | > 30 | > 30 | > 30
CC(CCc1ccc(O)cc1)NCCc1ccc(O)c(O)c1 (stereo unspecified) [DOBUTAMINE] | > 30 | > 30 | > 30 | > 30 | > 30 | > 30 | 5.31 | > 30 | 0.897 | > 30 | > 30
